Test results reported in patent US12116421B2, “Peptide-based Dopa containing adhesive gels” (KING ABDULLAH UNIVERSITY OF SCIENCE AND TECHNOLOGY, priority 2020, dated 2024).
Where a SMILES comes first, the peptide text is derived from it. [ ]: non-standard residue; d: D form. Dopa = N[C@@H](Cc1ccc(O)c(O)c1)C(=O)O; Cha = N[C@@H](CC1CCCCC1)C(=O)O

Assays:
[1] = Raman spectroscopy of secondary structure of the peptides; format: physicochemical; settings: 1×PBS, 5 mg/mL, integrated area under Raman peak
Procedure: In one embodiment, the secondary structure of the IIZDoK peptide contains a larger amount of α-helix structure than DoIIZK and IIZKDo peptides that preferentially contain β-turn, as can be appreciated in the Raman spectroscopy signatures of the three peptides.
Raman spectroscopy measurements were performed on DoIIZK, IIZDoK and IIZKDo at 5 mg/mL concentration in 1×PBS buffer or on dry powder samples after deposition on CaF2 slide. Witec Alpha 300 RA confocal Raman spectrometer equipped with Andor CCD camera (DU970N thermoelectrically cooled at −75° C.) was used to perform the Raman measurements in backscattered configuration. The samples were excited through a 50× objective (Zeiss® LD EC Epiplan-Neofluar) with linearly polarized 532 nm wavelength excitation laser. For the analysis, the spectra were cosmic rays removed, baseline subtracted with a polynomial of 5th order, and averaged after normalization to the 1450 cm^−1 peak intensity. Several Voigt functions were fitted setting the peaks at 1653±3, 1663±3 and 1680±3 cm^−1, corresponding to α-helix, β-turn and unordered β-turn respectively, with a FWHM set to a max value of 25 cm^−1. An additional peak at about 1635 cm^−1 was introduced into the fitting to account for contributions from water, lysine and isoleucine Raman shifts.^11

[2] = tested on: Acropora fragments; assay: Coral fragments glued to a tile in sea water, selection of best glue; format: in vivo, Acropora spp.; settings: for survival rate of the coral fragments: after 3 days, tile in aquarium with running seawater; for time to detachment of glued fragments under water: DoIIZK: one of the fragments, IIZDoK: all fragments; for Survival after 3 days in the aquarium / Survival after attachment: number of Acropora fragments of n = 3
Procedure: In one embodiment, coral fragments were attached to a tile using DoIIZK, IIZDoK, IIZKDo as a glue. The tile, to which the coral fragments were attached, has a size 10×10 cm and was placed into a shallow aquarium supplied with running seawater.
In one embodiment, the survival rate of the coral fragments fixed with DoIIZK was 67%, whereas the survival rate glued with IIZDoK and IIZKDo were respectively 0% and 100%, after 3 days.
The different glues were prepared at the same concentration of 40 mg/mL for DoIIZK, IIZDoK and IIZKDo. Then, the coral fragments were adhered to the surface of the tiles by applying gentle pressure as following: triplicates in the first line with DoIIZK as a glue, second line with IIZDoK and last line with IIZKDo. The experiment setup is illustrated in FIG. 40. The tiles were afterwards placed underwater in a tank containing filtered sea water. One of the fragments that was glued with DoIIZK detached less than 15 minutes after we placed the tile under water and all of the fragments that were glued with IIZDoK detached around 30 minutes after they have been placed under water.

[3] = Peptide gelation study by vial inversion test (CGC and gelation time); format: physicochemical; settings: 1×PBS; for gelation time: vial inversion test
Procedure: The critical gelation concentration (CGC) and gelation time of hydrogels formed by the catechol peptides in 1×PBS determined by vial inversion test are summarized below:
The peptide powder was dissolved in 0.90 mL of MilliQ® water and vortexed until fully dissolved. Then, 0.10 mL of 10×PBS buffer were added to the peptide solution to reach a final concentration of 1×PBS. Gelation of the solution in the vial was observed by vial inversion method. The time and critical gelation concentration (CGC) at which each peptide formed a hydrogel were recorded.

[4] = AFM topography of peptide nanofibres; format: physicochemical; settings: 13 mM in MilliQ water
Procedure: In one embodiment, DoIIZK and IIZKDo form nice long and twisted fibers whereas, but IIZDoK peptide performs scarcely even at the concentration of 10 mg/mL. The photos in FIG. 11 has a scalebar of 200 nm, while the photos in FIG. 12 has a scalebar of 400 nm. The peptides shown in FIGS. 11 and 12 are dissolved in MilliQ® water at the concentration of 13 mM. According to the AFM photos in FIGS. 15 and 16 and 3D plot shown in FIG. 11, peptides DoIIZK, IIZDoK and IIZKDo show the following structural properties: • DoIIZK: helical pitch of 24.75±1.46 nm; maximum diametre 1.01±0.14 nm; minimum diametre: 0.66±0.09 nm. • IIZDoK: helical pitch of 8.63±0.49 nm; maximum diametre 1.66±0.19 nm; minimum diametre: 1.16±0.17 nm. • IIZKDo: helical pitch of 24.21±1.24 nm; maximum diametre 3.87±0.28 nm; minimum diametre: 3.09±0.16 nm.
AFM topography measurements were performed on a Dimension Icon SPM (Bruker®). The samples were prepared as follows: peptides were dissolved at 13 mM concentration in MilliQ® water; after 30 minutes, 20 μl of these solutions were dropped on freshly cleaved mica sheets and immediately dried with an N2 stream. Measurements were immediately performed in tapping mode in air by the use of an AFM probe AC_240TS_R3 (Olympus®) with nominal free oscillation at roughly 70 kHz and a nominal spring constant of 2 N/m. The probe was calibrated by contact-free method.^54 Free oscillation amplitude was set at 200 mV with a 5% damping during tapping mode measurement. AFM adhesion measurements were performed on a JPK Nanowizard™ III mounted on Olympus® IX-81 inverted optical microscope. A mica sheet was glued one day before the experiment with double component epoxy glue to a glass slide and enclosed in a plastic o-ring provided by the JPK company for liquid measurements. Each peptide was dissolved in MilliQ® water at a concentration of 13 mM and mixed gently. Starting with the measurement in MilliQ® water, 50 μL of the solution were dropped on the freshly cleaved mica sheet within 5 minutes from the preparation of the solution and let equilibrate for 10 minutes. After, the excess solution was removed by pipetting and discarded. Then 1 mL of MilliQ® water was added gently from the side and after 5 minutes, the sample was rinsed 3 times by additional 1 mL MilliQ® water. Finally, the sample was measured by AFM force spectroscopy (Quantitative imaging mode) with additional 1 mL MilliQ® water. The MilliQ® water was exchanged after the measurement alternatively with a water solution containing 137 mM NaCl or 10 mM Phosphate ions (a combination of Na2HPO4·7H2O and NaH2PO4·H2O to reach pH 7.4). After performing the force spectroscopy map in these two different solutions, eventually, the liquid was exchanged with 1×PBS pH 7.4. To verify the presence of eventual fibers, after the measurement, the excess solution was removed by pipetting and discarded. The sample was then rinsed two times with 1 mL MilliQ® water and dried overnight in a vacuum chamber. The topography AFM imaging was performed using AC-240TS_R3 AFM probes in tapping mode in the JPK AFM.

[5] = glue 40 mg/mL, tile in filtered sea water

| SMILES | Disordered structure Area % [1] | α-helix Area % [1] | β-turn Area % [1] | survival rate of the coral fragments [2] [%] | time to detachment of glued fragments under water [2, 5] | Survival after 3 days in the aquarium [2] | Survival after attachment [2] | critical gelation concentration (CGC) [3] [mg/mL] | gelation time ([3]; peptide 1 mg/mL) | gelation time ([3]; peptide 2 mg/mL) | gelation time ([3]; peptide 2 mg/mL, listed as DopaIIZK) [min] | gelation time ([3]; peptide 3 mg/mL) | gelation time ([3]; peptide 4 mg/mL) [min] | gelation time ([3]; peptide 5 mg/mL) [min] | helical pitch [4] [nm] | maximum diametre [4] [nm] | minimum diametre [4] [nm] | gelation time ([3]; peptide 4 mg/mL, listed as IIZDopaK) [min] | fragments sticking to the tile after 17 days ([2]; glue 40 mg/mL, tile in filtered sea water, triplicates) | gelation time ([3]; peptide 3 mg/mL, listed as IIZKDopa) [min] |
| --- | --- | --- | --- | --- | --- | --- | --- | --- | --- | --- | --- | --- | --- | --- | --- | --- | --- | --- | --- | --- |
| CC[C@H](C)[C@H](NC(=O)[C@H](Cc1ccc(O)c(O)c1)NC(C)=O)C(=O)N[C@H](C(=O)N[C@@H](CC1CCCCC1)C(=O)N[C@@H](CCCCN)C(N)=O)[C@@H](C)CC [DoIIZK, Ac-Dopa-Ile-Ile-Cha-Lys-NH2] (Ac-[Dopa]II[Cha]K-NH2) | 1687; 22% | 1650; 13% | 1665; 65% | 67 | less than 15 minutes | 2 | 3 | 2 | Not gelating | 45 min | >45 | >30 min | >20 | >10 | 24.75±1.46 | 1.01±0.14 | 0.66±0.09 |  |  |  |
| CC[C@H](C)[C@H](NC(C)=O)C(=O)N[C@H](C(=O)N[C@@H](CC1CCCCC1)C(=O)N[C@@H](Cc1ccc(O)c(O)c1)C(=O)N[C@@H](CCCCN)C(N)=O)[C@@H](C)CC [IIZDoK, Ac-Ile-Ile-Cha-Dopa-Lys-NH2] (Ac-II[Cha][Dopa]K-NH2) | 1690; 16% | 1656; 40% | 1666; 44% | 0 | around 30 minutes | 0 | 3 | 4 | Not gelating | Not gelating |  | Not gelating | 80 | >75 | 8.63±0.49 | 1.66±0.19 | 1.16±0.17 | >80 |  |  |
| CC[C@H](C)[C@H](NC(C)=O)C(=O)N[C@H](C(=O)N[C@@H](CC1CCCCC1)C(=O)N[C@@H](CCCCN)C(=O)N[C@@H](Cc1ccc(O)c(O)c1)C(N)=O)[C@@H](C)CC [IIZKDo, Ac-Ile-Ile-Cha-Lys-Dopa-NH2] (Ac-II[Cha]K[Dopa]-NH2) | 1690; 18% | 1658; 18% | 1666; 64% | 100 |  | 3 | 3 | 3 | Not gelating | Not gelating |  | 30 min | >21 | >16 | 24.21±1.24 | 3.87±0.28 | 3.09±0.16 |  | still all sticking to the tile after 17 days | >30 |
